The experiment concerns P. aeruginosa biofilm. The experiment is described as follows: P. aeruginosa biofilm formation under flow conditions (CLSM, IMARIS). It is filed as cell-based. Here is the method: FIGS. 15A-15B include fluorescent micrographs and a vertical bar graph showing that Pl-18 inhibits P. aeruginosa biofilm formation. The biofilm was grown under continuous flow conditions for 72 hr with 10 μM, 40 μM PL-18 or 0.04% DMSO. CLSM images visualize viable bacteria stained green and dead bacteria red using the BacLight® Dead/Live Kit. Scanned areas were 318 μm×318 μm. (15A) IMARIS images. Scale bar is 50 μm. (15B) A graph showing the mean±SD of the biofilm volume generated from three independent sets of flow-cell experiments. Two-way ANOVA Bonferroni's multiple comparisons test, 95% confidence interval (p-values ***≤0.0002).
The anti-biofilm activity of PL-18 was tested in flow conditions for 72 hours. The biofilm was visualized by CLSM and quantified using the IMARIS software.

Regarding `COc1cc(/C=C/C(=O)N2CCC=CC2=O)cc(O)c1O` [PL-18, Dihydroxy piperlongumine], the inhibition at 40 µM (Pseudomonas aeruginosa, 72 h, read-out: Inhibition of P. aeruginosa biofilm formation) is 85%. In addition, the “Attenuation of biofilm formation, in words” value (running text) is given as “effectively attenuate”.

As a reminder, the inhibition is the share of the control response that was lost under treatment.

For the origin of these results see US20240109855A1, “ANTI-QUORUM SENSING, ANTI-BIOFILM, AND INFLAMMATION ATTENUATING COMPOUNDS, COMPOSITIONS, AND METHODS OF USING SAME” (priority 2021, published 2024).
